From ChEMBL document CHEMBL4765285, “Discovery of orally active indirubin-3'-oxime derivatives as potent type 1 FLT3 inhibitors for acute myeloid leukemia” (Eur J Med Chem, 2020)
pIC50: −log10 of the molar value. Calls of active or inactive are those of the source. The rule behind the calls is not given here.

Key:
[1] = system: MV4-11; test: cells; conditions: Homo sapiens, MV4-11, 72 h
[2] = molecular target: T1, Receptor-type tyrosine-protein kinase FLT3 (Homo sapiens, UniProt P36888)
T1 sequence (P36888 whole entry): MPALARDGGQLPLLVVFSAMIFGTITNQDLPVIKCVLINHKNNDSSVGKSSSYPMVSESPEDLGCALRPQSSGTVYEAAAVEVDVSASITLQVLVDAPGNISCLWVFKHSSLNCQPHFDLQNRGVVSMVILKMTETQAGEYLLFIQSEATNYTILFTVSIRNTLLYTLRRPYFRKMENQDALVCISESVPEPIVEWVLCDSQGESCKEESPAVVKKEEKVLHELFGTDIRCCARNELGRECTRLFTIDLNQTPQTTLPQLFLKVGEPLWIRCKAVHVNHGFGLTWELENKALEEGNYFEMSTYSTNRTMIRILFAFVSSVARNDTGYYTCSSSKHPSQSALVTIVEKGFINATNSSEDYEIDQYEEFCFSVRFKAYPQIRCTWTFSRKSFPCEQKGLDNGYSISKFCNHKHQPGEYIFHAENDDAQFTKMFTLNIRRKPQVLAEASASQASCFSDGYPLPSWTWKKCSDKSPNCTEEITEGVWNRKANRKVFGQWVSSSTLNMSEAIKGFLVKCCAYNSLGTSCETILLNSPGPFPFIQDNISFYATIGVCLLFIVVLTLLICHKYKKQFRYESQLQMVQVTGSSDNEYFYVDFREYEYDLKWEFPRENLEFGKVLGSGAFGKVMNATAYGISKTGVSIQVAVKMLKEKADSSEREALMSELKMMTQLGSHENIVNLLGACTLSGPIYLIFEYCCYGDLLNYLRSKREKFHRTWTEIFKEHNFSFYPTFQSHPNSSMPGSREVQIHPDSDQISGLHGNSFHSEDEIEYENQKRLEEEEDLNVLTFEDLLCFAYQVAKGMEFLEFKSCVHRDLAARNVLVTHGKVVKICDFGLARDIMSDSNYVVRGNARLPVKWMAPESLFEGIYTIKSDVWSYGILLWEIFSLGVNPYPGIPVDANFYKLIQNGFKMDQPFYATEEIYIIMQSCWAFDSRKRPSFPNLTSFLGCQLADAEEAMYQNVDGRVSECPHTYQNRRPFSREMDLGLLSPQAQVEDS

[3] = Half-life in ICR mouse at 10 mg/kg, iv or po measured up to 1440 mins by LC-MS/MS analysis; assay type: ADME, organism-based; conditions: in vivo
[4] = Oral bioavailability in ICR mouse at 10 mg/kg measured up to 1440 mins by LC-MS/MS analysis; assay type: ADME, organism-based; conditions: in vivo
[5] = Clearance in ICR mouse at 10 mg/kg, iv or po measured up to 1440 mins by LC-MS/MS analysis; assay type: ADME, organism-based; conditions: in vivo
[6] = system: MV4-11; test: Antiproliferative activity against human MV4-11 cells assessed as growth inhibition after 72 hrs; assay type: functional
[7] = Toxicity in BALB/c nu/nu mouse xenografted with human MV4-11 cells assessed as body weight loss at 20 mg/kg, po administered for 21 days; assay type: organism-based; conditions: in vivo, 504 h, time 21 day
[8] = AUClast in ICR mouse at 10 mg/kg, iv or po measured up to 1440 mins by LC-MS/MS analysis; assay type: ADME, organism-based; design: dose 10 mg/kg, time <=1440; conditions: in vivo
[9] = Cmax in ICR mouse at 10 mg/kg, iv or po measured up to 1440 mins by LC-MS/MS analysis; assay type: ADME, organism-based; design: dose 10 mg/kg, time <=1440; conditions: in vivo
[10] = system: MV4-11; test: Antitumor activity against human MV4-11 cells xenografted in BALB/c nu/nu mouse assessed as reduction in tumor volume at 20 mg/kg, po administered once daily for 21 days measured twice daily during compound dosing; assay type: functional, organism-based; conditions: time 21.0 day
[11] = system: HepG2; test: cells; conditions: Homo sapiens
[12] = system: SK-OV-3; test: cells; conditions: Homo sapiens, SK-OV-3, read-out: INH
[13] = system: MOLM-14; test: cells; conditions: Homo sapiens
[14] = system: MDA-MB-231; test: cells; conditions: Homo sapiens, MDA-MB-231, read-out: INH
[15] = system: MV4-11; test: Antiproliferative activity against human MV4-11 cells assessed as cell growth inhibition by Celltiter-Glo luminescent assay; assay type: functional
[16] = system: PC-3; test: cells; conditions: Homo sapiens, PC-3, read-out: INH
[17] = system: MOLM-14; test: cells; conditions: Homo sapiens; remark: listed apart in the source
[18] = system: MOLM-14; test: cells; conditions: Homo sapiens; remark: listed apart in the source
[19] = system: K562; test: Antiproliferative activity against human K562 cells assessed as cell growth inhibition by WST assay; assay type: functional
[20] = system: HCT-116; test: cells; conditions: Homo sapiens, HCT-116, read-out: INH
[21] = system: A549; test: cells; conditions: Homo sapiens, A549, read-out: INH
[22] = system: MOLM-14; test: cells; conditions: Homo sapiens; remark: listed apart in the source

| SMILES | GI50 [1] [nM] | pIC50 [2] | also measured |
| --- | --- | --- | --- |
| O=C1Nc2ccc([N+](=O)[O-])cc2/C1=C1/Nc2ccc(O)cc2/C1=N\OCCN1CCOCC1 | 100 | 6.46 | – |
| O=C1Nc2ccc(F)cc2/C1=C1/Nc2ccccc2/C1=N\OCCN1CCCC1 | 212 | 6.59 | – |
| O=C1Nc2ccc(F)cc2/C1=C1/Nc2ccc(F)cc2/C1=N\OCCN1CCCC1 | 634 | 6.94 | – |
| Cl.O=C1Nc2ccc([N+](=O)[O-])cc2/C1=C1/Nc2ccc(O)cc2/C1=N\OCCN1CCNCC1 | 26.5 | 7.91 | bioavailability [4]: 0%; clearance [5]: 70.4 mL/min/kg |
| CN1CCN(CCO/N=C2/C(=C3/C(=O)Nc4ccccc43)Nc3ccccc32)CC1 | 54.8 | 8.03 | – |
| O=C1Nc2ccc([N+](=O)[O-])cc2/C1=C1/Nc2ccc(F)cc2/C1=N\OCCN1CCNCC1 | 10.2 | 7.56 | – |
| O=C1Nc2ccc([N+](=O)[O-])cc2/C1=C1/Nc2ccc(O)cc2/C1=N\O | 133 | – | – |
| COC(=O)c1ccc2c(c1)/C(=C1/Nc3ccccc3/C1=N\OCCN1CCNCC1)C(=O)N2 | – | – | GI50 [6]: 1 nM; bioavailability [4]: 1.43% |
| O=C1Nc2ccccc2/C1=C1/Nc2ccccc2/C1=N\OCCN1CCCCC1 | 138 | 6.89 | – |
| CN1CCN(CCO/N=C2/C(=C3/C(=O)Nc4ccc(F)cc43)Nc3ccc(F)cc32)CC1 | 31.5 | 7.57 | – |
| O=C1Nc2ccc([N+](=O)[O-])cc2/C1=C1/Nc2ccc(O)cc2/C1=N\OCCBr | 470 | 6.49 | – |
| COc1ccc2c(c1)/C(=C1/Nc3ccccc3/C1=N\OCCN1CCN(C)CC1)C(=O)N2 | 20 | 8.68 | – |
| O=C1Nc2ccc(F)cc2/C1=C1/Nc2ccccc2/C1=N\OCCN1CCCCC1 | 263 | 6.85 | – |
| Cl.O=C1Nc2ccc(F)cc2/C1=C1/Nc2ccc(F)cc2/C1=N\OCCNC1CCNCC1 | 8.47 | 7.94 | half-life [3]: 9.2 h; bioavailability [4]: 15.3%; clearance [5]: 231 mL/min/kg |
| CN1CCN(CCO/N=C2/C(=C3/C(=O)Nc4ccc(F)cc43)Nc3ccccc32)CC1 | 11.1 | 8.48 | – |
| O=C1Nc2ccccc2/C1=C1/Nc2ccccc2/C1=N\OCCNC1CCNCC1 | 15.1 | 7.68 | – |
| CN1CCN(CCO/N=C2/C(=C3/C(=O)Nc4ccc([N+](=O)[O-])cc43)Nc3ccc(O)cc32)CC1 | 50 | 7.72 | – |
| CCc1nc(C(N)=O)c(Nc2ccc(N3CCC(N4CCN(C)CC4)CC3)c(OC)c2)nc1NC1CCOCC1 [GILTERITINIB] | – | – | GI50 [11]: 2200 nM; inhibition at 1 µM [12]: 23.3%; GI50 [13]: 5.24 nM; inhibition at 1 µM [14]: 42.1%; GI50 [15]: 0.9 nM; inhibition at 1 µM [16]: 41.8%; GI50 [17]: 1.91 nM; GI50 [18]: 3.29 nM; GI50 [19]: 1010 nM; inhibition at 1 µM [20]: 45.1%; inhibition at 1 µM [21]: 4.05%; GI50 [22]: 4.94 nM |
| Cl.O=C1Nc2ccc([N+](=O)[O-])cc2/C1=C1/Nc2ccccc2/C1=N\OCCN1CCNCC1 | 7.01 | 7.88 | bioavailability [4]: 1.33%; clearance [5]: 108 mL/min/kg |
| O=C1Nc2ccc(F)cc2/C1=C1/Nc2ccc(F)cc2/C1=N\OCCN1CCCCC1 | 105 | 7.35 | – |
| O=C1Nc2ccc(OC(F)(F)F)cc2/C1=C1/Nc2ccccc2/C1=N\OCCN1CCNCC1 | 17 | 7.40 | – |

More lines, main results first:

| GI50 [1] [nM] | pIC50 [2] | SMILES | also measured |
| --- | --- | --- | --- |
| 8.3 | 7.80 | Cl.O=C1Nc2ccc(F)cc2/C1=C1/Nc2ccc(F)cc2/C1=N\OCCN1CCNCC1 | half-life [3]: 3.4 h; bioavailability [4]: 16.7%; clearance [5]: 28.1 mL/min/kg |
| 7 | 8.25 | CN1CCN(CCO/N=C2/C(=C3/C(=O)Nc4ccc(OC(F)(F)F)cc43)Nc3ccccc32)CC1 | – |
| 11.9 | 8.02 | O=C1Nc2ccc(F)cc2/C1=C1/Nc2ccccc2/C1=N\OCCNC1CCNCC1 | – |
| 118 | 7.51 | CN1CCN(CCO/N=C2/C(=C3/C(=O)Nc4ccc([N+](=O)[O-])cc43)Nc3ccc(F)cc32)CC1 | – |
| 116 | 7.01 | O=C1Nc2ccc(F)cc2/C1=C1/Nc2ccc(F)cc2/C1=N\OCCN1CCOCC1 | – |
| 22 | 7.91 | COc1ccc2c(c1)/C(=C1/Nc3ccccc3/C1=N\OCCN1CCNCC1)C(=O)N2 | – |
| – | 8.57 | Cl.O=C1Nc2ccccc2/C1=C1/Nc2ccccc2/C1=N\OCCN1CCNCC1 | Activity [7]: Non-Toxic; bioavailability [4]: 51%; AUC(0-t) at 24 h [8]: 1200 ng·h/mL; Cmax [9]: 69.7 ng/mL; Activity [10]: Active |
| 104 | 7.38 | O=C1Nc2ccccc2/C1=C1/Nc2ccccc2/C1=N\OCCN1CCCC1 | – |
| 95.3 | 8.07 | Cl.NCCO/N=C1/C(=C2/C(=O)Nc3ccc([N+](=O)[O-])cc32)Nc2ccc(O)cc21 | bioavailability [4]: 0% |
